Several values for one entry are separate records, joined by “and”; a condition that tells them apart may be missing. Equal values may be shown once.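 Values below derive from 48-hour exposures of cells grown in 96-well plates, with endpoints linearly interpolated between the two concentrations bracketing the appropriate inhibition level. GI50 marks 50% less growth. TGI marks complete inhibition of growth.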
Tests used:
Test in all cases: NCI anticancer screen, dose series, 48 h
NCI/ADR-RES ovarian = test system: NCI/ADR-RES ovarian
SK-MEL-5 melanoma = test system: SK-MEL-5 melanoma
ACHN renal = test system: ACHN renal
CAKI-1 renal = test system: CAKI-1 renal
HCT-116 colon = test system: HCT-116 colon
LOX IMVI melanoma = test system: LOX IMVI melanoma
MCF7 breast = test system: MCF7 breast
K-562 leukemia = test system: K-562 leukemia
MDA-MB-231 breast = test system: MDA-MB-231 breast
MOLT-4 leukemia = test system: MOLT-4 leukemia

| Compound | TGI (NCI/ADR-RES ovarian) | TGI (SK-MEL-5 melanoma) | TGI (ACHN renal) | TGI (CAKI-1 renal) | TGI (HCT-116 colon) | TGI (LOX IMVI melanoma) | TGI (MCF7 breast) | TGI (K-562 leukemia) | TGI (MDA-MB-231 breast) | TGI (MOLT-4 leukemia) | GI50 (SK-MEL-5 melanoma) | GI50 (HCT-116 colon) | GI50 (LOX IMVI melanoma) | GI50 (K-562 leukemia) | GI50 (NCI/ADR-RES ovarian) | GI50 (ACHN renal) | GI50 (CAKI-1 renal) | GI50 (MCF7 breast) | GI50 (MDA-MB-231 breast) |
| --- | --- | --- | --- | --- | --- | --- | --- | --- | --- | --- | --- | --- | --- | --- | --- | --- | --- | --- | --- |
| COc1cc(C2c3cc4c(cc3OC(NNc3ccccc3)C2C)OCO4)cc(OC)c1O (stereo not drawn) | 11.1 µM | 3.68 µM | 10.4 µM | > 92 µM | 13.5 µM | 19 µM | 13.3 µM | 12.4 µM | 8.53 µM | 11.2 µM |  |  |  |  |  |  |  |  |  |
| NCCN(CCN)/[N+]([O-])=N/O | > 100 µM | > 100 µM | > 100 µM | > 100 µM | > 100 µM | > 100 µM | > 100 µM | > 100 µM | > 100 µM | > 100 µM |  |  |  |  |  |  |  |  |  |
| Cc1csc2c(=O)n(COCc3ccccc3)c(=O)[nH]c12 | > 100 µM | > 100 µM | > 100 µM | > 100 µM | > 100 µM | > 100 µM | > 100 µM | > 100 µM | > 100 µM | > 100 µM |  |  |  |  |  |  |  |  |  |
| NC(CS)C(=O)NCCNc1ccc(NCCNC(=O)C(N)CS)c2c1C(=O)c1c(O)ccc(O)c1C2=O (stereo not drawn) | 1.03 µM | 1.33 µM and 0.373 µM | 0.123 µM and 0.104 µM | 0.566 µM and 0.104 µM | 0.261 µM and 0.154 µM | 0.205 µM and 0.165 µM | 1.21 µM | 0.614 µM and 0.145 µM | 1.62 µM | 0.62 µM | 0.0231 µM | 0.0176 µM | 0.0149 µM | 0.0192 µM |  |  |  |  |  |
| O=[N+]([O-])c1ccc2c(N=Nc3ccc4ccccc4c3O)c(O)cc(S(=O)(=O)O)c2c1 | > 90.3 µM | 53.6 µM | 50.3 µM | > 80.6 µM | > 100 µM | > 90.2 µM | > 100 µM | > 95.1 µM | > 100 µM | > 51 µM |  |  |  |  |  |  |  |  |  |
| C[C@]12CCC(=O)C=C1CC[C@@H]1C2CC[C@@]2(C)C1CC[C@@H]2OC(=O)C12OC1CCC2=O (stereo partly drawn) |  | 29.7 µM | 29.3 µM |  | 29.2 µM | 31.1 µM |  | 59.4 µM |  | 32.6 µM |  |  |  |  |  |  |  |  |  |
| O=C1C(c2c(O)[nH]c3ccc(I)cc23)=Nc2ccccc21 | > 100 µM | 10.8 µM | 11.8 µM | > 96.5 µM |  | 34.4 µM | 15.7 µM | > 100 µM | 8.47 µM | > 100 µM |  |  |  |  |  |  |  |  |  |
| CC(=O)CC12NC(=O)N(C)N=C1N(C)C(=O)N(C)C2=O (stereo not drawn) | > 100 µM |  | > 100 µM | > 100 µM | > 100 µM | 40.8 µM | > 100 µM | > 100 µM | > 100 µM | > 100 µM |  |  |  |  |  |  |  |  |  |
| Cc1cc(=O)[nH]c(NNC(C#N)c2ccc(N(C)C)cc2)n1 (stereo not drawn) |  | > 100 µM | > 100 µM | > 100 µM | > 100 µM | > 100 µM |  | > 100 µM |  |  |  |  |  |  |  |  |  |  |  |
| N#Cc1c(O)c(C=O)c(=O)n2c1[nH]c1ccccc12 | > 100 µM | > 100 µM | > 100 µM | > 100 µM | > 100 µM | > 100 µM | > 100 µM | > 100 µM | > 100 µM | > 100 µM |  |  |  |  |  |  |  |  |  |
| CNC(=O)c1cc(Oc2cccc3nc(NC(=O)Nc4ccc(F)cc4F)ccc23)ccn1 | > 50 µM | > 50 µM | > 50 µM | > 50 µM |  | > 50 µM | > 50 µM |  | > 50 µM |  | 1.02 µM |  | 1.68 µM |  | 1.6 µM | 2.13 µM | 1.61 µM | 1.66 µM | 1.59 µM |

From PubChem BioAssay (NCI)
